# Results taken from patent publication US20240407364A1, “METHODS OF WEED CONTROL” (Weedout Ltd., priority 2021, published 2024).
# Entries after “also recorded” stand apart in the source; their conditions may differ.
# Key:
# A. palmeri female plants [1] = test: Exp 289: seed set of female plants pollinated 1.5 hours to 10 days after Clethodim; type: in vivo, Amaranthus palmeri; details: Select Super 3.5 ml/l
# Method: The goal of this experiment was to examine the effects of Clethodim (Select Super™) on seed set in A. palmeri female plants. The results of Example 1 provided an initial indication on a reduction in seed set one week after an application of Clethodim. The following experiment tested the effect of Clethodim on seed set when pollination occurs from 1.5 hours to 10 days after treatment with Clethodim.
# The experiment was conducted during June-July 2021 at the tests farm of the Tests farm of the Faculty of Agriculture, Rehovot, Israel, Israel. A. palmeri plants were sown in germinating trays. Three weeks after the seedlings had emerged, they were transplanted to 4 L pots with a potting soil mixture. The female plants were separated from the male plants and were grown outside in a location isolated from air-borne pollen. Upon maturation, 6 female plants were selected and divided into 2 groups of 3 plants.
# Spraying of the entire plants with either tap water or Select Super™ (3.5 ml/1) using a hand-held 1.5 L sprayer, with enough distance between the groups to prevent contamination.
# To test the effect of Clethodim on seed set, the inflorescence of the plants were artificially pollinated. On each time interval, a paper tube with 10 mg of fresh non-irradiated pollen was carefully placed on an inflorescence, leaving it for 20 minutes before removing. […]
# Abutilon theophrasti = test: Exp 401: clethodim on Abutilon theophrasti; type: in vivo; details: Select Super 7 ml/L
# Method: (§1) The goal of this experiment was to examine if ACCase inhibitors can function as a sterilant on other broadleaf families.
# (§2) The experiment was conducted during April-June 2022 at the test farm of the Faculty of Agriculture in Rehovot, Israel. The different broad leaf species (Table 5) were sown in germination trays. 3-4 weeks after the seedling had emerged, they were transplanted in 4 L pots with potting soil mixture. Amaranthus tuberculatus female plants were separated from male plants and grown outside in a location isolated from air borne pollen. Upon maturation, 10 plants from each species, except for A. tuberculatus females, were selected and divided into 2 groups (control and treatment). In A. tuberculatus, 8 female plants were used for the testing.
# (§3) All the treated plants were sprayed with clethodim (Select Super™, Arysta Lifescience) in 7 ml/L rate while the control group was treated with tap water.
# (§4) Treatment procedure was conducted as follows: spraying of the entire plants with the different treatments using electric back sprayer for a full cover, with enough distance between the groups to prevent contamination.
# (§5) Four, 7 14 and 21 days after treatment, the plants were visually examined carefully to identify possible sterilant effects such as reduction in pollen production, growth delay, damaged flowers, loss of flowers, loss of pods and phytotoxicity. These effects were measured or evaluated and recorded. The average values of each parameter were calculated both for the treated and for the control groups and a statistical analysis was conducted.
# [2] = system: Amaranthus tuberculatus male plants; test: Exp 401: Amaranthus tuberculatus pollen production; type: in vivo; details: Select Super 7 ml/L
# Method: as §1, §2
# (§6) All the treated plants were sprayed with clethodim (Select Super™, Arysta Lifescience) in 7 ml/L rate while the control group was treated with tap water. […]
# as §5
# A. palmeri male plants [3] = test: Exp 275: pollen weight of male plants after male sterilant agents; type: in vivo, Amaranthus palmeri
# Method: The experiment was conducted during May-June 2021 in a net house in Rehovot, Israel. A. palmeri plants were sown in the net house soil and were grown for over a month before the experiment started. A. palmeri plants were divided into 6 groups of 10 plants, 60 male plants in total.
# The plants were mature and produced pollen when the experiment started. The pollen had been collected daily with a vacuum cleaner. The vacuum cleaner had been mounted with a replaceable filter located ahead of the dust container, thus catching the pollen before it enters the container and improving its collection. Pollen was collected for 5 days before the treatment and was continued for 2 weeks afterwards.
# The experiment tested 5 male sterilant agents: (I) Silicon oil 2 cST; (II) 2% Paraffin oil (Life—Superpharm) in Silicon oil 2 c/st; (III) 10% Paraffin oil (Life—Superpharm) in Silicon oil 2 cST; (IV) Clethodim (Select Super™), same as in Example 1; (V) Pyrithiobac, at 1/10 the concentration used in experiment II. Another group of plants was not treated at all (Blank).
# The treatments were applied using a hand-held sprayer. The solutions were sprayed on top of the plants.
# A. palmeri male plants [4] = test: Exp 254: pollen production of male plants after spraying male sterilant agents; type: in vivo, Amaranthus palmeri
# Method: (§7) The experiment was conducted during April-May 2021 in a net house in Rehovot, Israel. A. palmeri plants were sown in germinating trays. Three weeks after the seedlings had emerged, the male plants were transplanted in the net house. A. palmeri plants were divided into 10 groups of 10 plants, 100 male plants in total. In addition, 30 females, 3 females per treatment, were transplanted in 4 L pots with a potting soil mixture and were grown in a different net house, isolated from male pollen.
# Once the male plants had all started to flower, the pollen had been collected daily with a vacuum cleaner. The vacuum cleaner had been mounted with a replaceable filter located ahead of the dust container, thus catching the pollen before it enters the container and improving its collection. A new filter was used for each group, and the filters were kept in a 50 ml tube before the pollen was extracted and weighed in the lab.
# (§8) The experiment tested 8 male sterilant agents (Table 2): (1) Triton X-100 (Adama), at label rate, ˜8 times the rate used in experiment I; (2) Tribenuron-Methyl (TBM) (Gadot), 1/100 the rate used in experiment I; (3) 10% Paraffin oil (Life—Superpharm) diluted in Silicon oil 2 cST; (4) E.O.S. (Adama), an insecticide with a physical mode of action, based on petroleum oil; (5) Maleic Hydrazide (Sigma), an Auxin (plant hormone) disruptor known to affect pollen production; (6) Pyrithiobac (IHARA chemical industry co. ltd), an herbicide of the AHAS inhibitors group, regularly used in cotton cultivation to control broadleaf weeds; (7) Diuron (Adama), a herbicide of the Photosystem II inhibitors, regularly used in cotton cultivation; (8) Clethodim (Select Super™ a selective herbicide used to control Gramineae. Another group of plants were treated with water only as control, and another was not treated at all (Blank).
# (§9) The treatments were applied using a hand-held sprayer, the females were sprayed first and then the males. ˜650 ml solution was used per treatment for both males and females, except the Paraffin:Silicon oil treatment in which 500 ml was used. The solutions were sprayed on top of the plants except the Diuron that was sprayed directly to the soil and stem, except for one female that was sprayed on top. To activate the Diuron, each plant was watered with 1 L of water.
# A. palmeri female plants [5] = test: Exp 313: dose response of Clethodim (Select Super) on seed set; type: in vivo, Amaranthus palmeri; details: for reduction in number of seeds produced in comparison to the control, on average: all time points averaged
# Method: The goal of this experiment was to examine dose response of Clethodim (Select Super™) treatment and validate the results of Example 3.
# The experiment was conducted during September 2021 at the tests farm of the Faculty of Agriculture in Rehovot, Israel. A. palmeri plants were sown in germinating trays. 3 weeks after the seedlings had emerged, they were transplanted to 4 L pots with a potting soil mixture. The female plants were separated from the male plants and were grown outside in a location isolated from air-borne pollen. Upon maturation, 9 female plants were selected and divided into 3 groups of 3 plants.
# The experiment tested 2 rates of Select Super™ (Clethodim 120 gr/L-Arysta): (I) Low rate (3.5 ml/1), (II) High rate (7 ml/1). Another group of plants was treated with tap water (Control), [3.5 ml/L treatment=0.42 gr/L in active ingredient, 7 ml/L treatment=0.84 gr/L].
# Treatment procedure was conducted as follows: spraying of the entire plants with the different treatments using a hand-held 1.5 L sprayer, with enough distance between the groups to prevent contamination.
# To test the effect of Clethodim on seed set, artificial pollinations were conducted in several time intervals following clethodim treatment. On each time interval, 2 inflorescences on each plant were artificially pollinated by placing a paper tube with 10 mg of fresh non-irradiated pollen on the inflorescence and leaving it for 20 minutes before removing. On each time interval a total of 6 inflorescences from 3 female plants were pollinated. The intervals were as follows: 1.5-hour, 1 day, 2 days, 4 days, 7 days, 10 days and 22 days after treatment.
# [6] = system: Amaranthus tuberculatus female plants; test: Exp 401: clethodim on broadleaf panel, Amaranthus tuberculatus seed set; type: in vivo; details: Select Super 7 ml/L
# Method: as §1, §2, §3, §4
# To test the effect of treatment on the seed set, artificial pollinations were conducted 7 days following the clethodim treatment. One spike from each plant was artificially pollinated by placing a paper tube with 10 mg of fresh non-irradiated pollen on the spike and leaving it for 20 minutes before removing. A total of 4 spikes from 4 female plants were pollinated.
# as §5
# Solanum nigrum = test: Exp 401: clethodim on Solanum nigrum; type: in vivo; details: Select Super 7 ml/L; 15 DAA; p-value 0.0048
# Method: as §1, §2, §6, §5
# A. palmeri females [7] = test: Exp 254: seed set of females pollinated one week after treatment; type: in vivo, Amaranthus palmeri
# Method: as §7, §9
# The experiment aimed to test not just the male sterility properties of the agents but also to examine the effect on the seed set. To do so, one week after treatment, the main inflorescence of each female (except the blank) was pollinated with fresh pollen mixed with talc in 2:1 ratio using a puffer. 70 mg of pollen was applied on each female. Two weeks after pollination the inflorescences were harvested, dried, thrashed and the seeds were counted.
# A. palmeri male plants [8] = test: Exp 321: male sterility agents screening #2, pollen production; type: in vivo, Amaranthus palmeri; details: 7 ml/L (high rate); collection up to 12 DAA
# Method: The goal of this experiments was to repeat results with Select Super™ (Arysta Lifescience) and test an additional formulation of clethodim to act as a sterilant on A. palmeri male plants.
# The experiment was conducted during September-October 2022 in a net house in Rehovot, Israel. A. palmeri plants were sown in germinating trays, 3 weeks after the seedlings had emerged, the male plants were transplanted in the net house. A. palmeri plants were divided into 4 groups of 10 plants each, 40 male plants in total.
# Once the male plants had all started to flower, the pollen had been collected daily with a vacuum cleaner in the same manner as described in Example 1. Pollen was collected in specific days following the applications up to 12 DAA.
# The experiment tested 2 male sterilant agents: (1) Clethodim (Select Super™, Arysta Lifescience) low rate: 3.5 ml/L and high rate: 7 ml/L, (2) Clethodim (Arrow Super™, Adama) 7 ml/L. Another group of plants were not treated at all and served as a control.
# Treatment procedure was conducted as follows: spraying of the entire plants using a hand-held 1.5 L sprayer for a full cover of all plant parts. Each group of plants was sprayed with the tested treatment while keeping enough distance between the groups to prevent contamination.
# A. palmeri females [9] = test: Exp 254: phytotoxicity of the agents on females; type: in vivo, Amaranthus palmeri; details: 3 females per treatment; concentrations of Table 2; Diuron 5 ml/L, Pyrithiobac 5.4 μL/L
# Method: as §7
# as §8, with “Another group of plants were treated with water only as control, and another was not treated at all (Blank).” left out
# [10] = Clethodim 3.5 ml/L, 10% Paraffin in 2 cST
# [11] = Clethodim treatment group, FIG. 2
# [12] = average of 3 inflorescences, pollinated one week after treatment
compound,measurement,setting,value
CCSC(C)CC1CC(=O)C(/C(CC)=N/OC/C=C/Cl)=C(O)C1 (centres unmarked) [Clethodim (Select Super™],abortion rate (aborted seeds/total seeds),A. palmeri female plants [1]; vs tap water,significantly higher compared to the water control
CCSC(C)CC1CC(=O)C(/C(CC)=N/OC/C=C/Cl)=C(O)C1 (centres unmarked) [Clethodim],time from application to start of Blossom-Drop,Abutilon theophrasti,7 days
same,reduction in average stem length (main stem),"Abutilon theophrasti; 15 DAA, p-value *0.0058",19%
same,reduction in average pods number in comparison to the control,"Abutilon theophrasti; 15 days after application, p-value *0.0001",75%
same,duration of the effect on pollen,[2],at least 21 days
same,onset of the effect on pollen,[2],4 days after treatment
same,duration of the reduction in pollen weight,"A. palmeri male plants [3]; 10% Paraffin oil in Silicon oil 2 cST, Clethodim (Select Super) as in Example 1",8 days
same,apparent damage to the plants,A. palmeri male plants [3]; in vivo,did not cause any apparent damage to the plants
same,onset of the reduction in pollen weight after application,A. palmeri male plants [3]; in vivo,5 days
same,reduction in pollen weight compared to the blank,"A. palmeri male plants [3]; maximum reduction, FIG. 4",up to 80%
same,pollen weight after treatment relative to the lowest amount collected before treatment,A. palmeri male plants [4]; Clethodim 3.5 ml/L,1/10
same,duration of the pollen weight reduction / time to get back to pre-treatment weight,A. palmeri male plants [4]; [10],14 days
same,onset of the reduction in pollen weight,A. palmeri male plants [4]; [10],5 days after treatment
same,onset of pollen production (recovery),A. palmeri male plants [4]; [11],13 DAT
same,period of major reduction in pollen weight,A. palmeri male plants [4]; [11],5-8 DAT
same,visible effect / injury to the treated plants,A. palmeri male plants [4]; male plants after spraying,no apparent injury to the plants; also recorded: no visible effect on the plants
same,duration of decreased total seed number after application,A. palmeri female plants [1],at least 10 days
same,visible effect on the plants,A. palmeri female plants [5]; both rates,no visible effect on the plants
same,"reduction in number of seeds produced in comparison to the control, on average",A. palmeri female plants [5]; high rate 7 ml/l (0.84 gr/L active ingredient),92%
same,"reduction in number of seeds produced in comparison to the control, on average",A. palmeri female plants [5]; low rate 3.5 ml/l (0.42 gr/L active ingredient),67%
same,visible effect on the plants,[6],no visible effect on the plants other than on the flowering organs
same,reduction of average seed weight per spike in comparison to the control spikes,[6]; pollination 7 days after treatment,93%
same,Average total seed weight per spike,"[6]; pollination 7 days after treatment, 4 spikes from 4 plants",13.25 mg
same,reduction in average total fruit number,Solanum nigrum,35%
same,Average Aborted Seeds,A. palmeri females [7]; [12],80.7 number of seeds
same,Average Abortion Rate (fraction of aborted seeds from the total seed number),A. palmeri females [7]; [12],0.17
same,Average Normal Seeds,A. palmeri females [7]; [12],349 number of seeds
same,Average Seeds/ mg inflo. (total seed number divided by inflorescence weight),A. palmeri females [7]; [12],0.78
same,Average Total Seeds,A. palmeri females [7]; [12],429.7 number of seeds
same,Average Inflo. Weight,"A. palmeri females [7]; average of 3 inflorescences, pollinated one week after treatment, harvested two weeks later",667.3 mg
same,effect on abortion rate compared to the water,A. palmeri females [7]; compared to H2O treatment,no effect
same,number of seeds per inflorescence mg as % of the water treatment value,A. palmeri females [7]; compared to H2O treatment,~70%
same,reduction in pollen production between day 4 and the end of the experiment,A. palmeri male plants [8],78%
CN(C)C(=O)Nc1ccc(Cl)c(Cl)c1 [Diuron],phytotoxicity on females,A. palmeri females [9],killed all three females
COc1cc(OC)nc(Sc2cccc(Cl)c2C(=O)O)n1 [Pyrithiobac],phytotoxicity on females,A. palmeri females [9],chlorosis and growth stunt
